The subject of this assay is HGADFN167 Lmna^G608G/G608G fibroblasts. Kind of assay: Oxygen consumption rates (OCR) measurement. Type of assay: cell-based, human. Particulars: HGADFN167, 5 µM, 20 days. An excerpt:
FIGURE 6 (A) Representative cropped immunoblots and progerin quantification in human Lmna^G608G/G608G fibroblasts. MW, molecular weight (in kDa) markers. […] (B) PROTAC 2 increases cell proliferation (upper panels) and decreases the number of misshapen nuclei (lower panels). White arrows highlight selected misshapen nuclei. (C) PROTAC 2 decreases senescence‐associated β‐galactosidase (SA‐βgal) activity, interleukin (IL) 6, p16 and p21 senescent markers. Bar graphs show mean±sem of 2 (SA‐βgal and p21) or 3 (IL‐6 and p16) independent experiments performed in triplicate. (D) PROTAC 2 decreases phosphorylated histone 2AX (pH2AX) and increases trimethylated histone 3 (H3K9Me3) levels. (E) PROTAC 2 increases the oxygen consumption rate (OCR), ATP production and the number of healthy mitochondria in human progeroid cells. Bar graphs show mean±sem of 2 independent experiments performed in duplicate. […] Data were analysed using one‐way ANOVA followed by Dunnett's post–hoc test vs vehicle (panel A) or vs G608G cells (panels B‐E). ^*, p < 0.05; ^**, p < 0.01; ^***, p < 0.001; ^****, p < 0.0001. […]
Mitochondria were evaluated for the integrity of the membrane, matrix and cristae, and were classified as mitochondria with normal morphology (black arrows) or damaged mitochondria (red arrows, with alterations in the membrane, presence of inclusions in the matrix and concentric cristae or “onion-like” mitochondria). […]
ferrocyanide, 0.6 mL 5 M NaCl, 0.2 mL 0.2 M MgCl2, (all from Sigma Aldrich) and 6.2 mL of deionized water in a total volume of 20 mL] in the dark in a humidified incubator at 37 °C for 24 h without CO2 supply. Then, an equal volume of the supernatant of each well was transferred to a new 96-well plate for fluorescence measurement. The resultant production of fluorescein was measured using a FluoStar Optima instrument (BMG Labtech) with an excitation of 485 nm and emission at 535 nm. […]
Total RNA was extracted by RNAeasy Mini Kit (Qiagen) according to the manufacturer instructions and subsequently quantified using the NanoPhotometer N60 (Implen). […]

We go through one compound from PMC13252604, “First Generation Proteolysis Targeting Chimeras (PROTACs) for the Treatment of Progeria” (Advanced Science, 2026).

Structures are written as SMILES.

`CC1(C)Oc2cc3oc(=O)ccc3cc2C[C@@H]1OC(=O)CCCCCNc1cccc2c1C(=O)N(C1CCC(=O)NC1=O)C2=O` (stereo partly drawn) [compound 2]: the ATP production result was “enhances”, the basal respiration result is recorded as “enhances” and the “oxygen consumption rate (OCR)” value is “enhances OCR in human progeroid cells”.
